Where two headings read alike, the source gives them in different places.
Key:
[1] = test system: PKB Ser473 phosphorylation in Rat1-myr-HA-p110 delta cells; test: Reverse protein array, PKB Ser473 phosphorylation in Rat1-myr-HA-p110 delta cells; format: cell-based; conditions: Rattus norvegicus, 0.5 h, 30 minutes compound incubation, read-out: p-PKB/IC50_delta
[2] = test system: S6 Ribosomal Protein phosphorylation Ser235/236 in TSC1 null mouse embryo fibroblast (MEF) cells; test: Reverse protein array, S6 Ribosomal Protein phosphorylation in TSC1 null MEF cells; format: cell-based; conditions: 1 h, TSC1-/- MEFs, 60 minutes
Description: TSC1−/− MEFs cells (provided by D. Kwiatkowski), were cultivated in Dulbecco's modified Eagle's medium (DMEM high Glucose, GIBCO, cat. No. 41956-039) supplemented with 10% heat inactivated fetal bovine calf serum (Amimed, cat. No. 2-01F16-I), 1% L-Glutamine (Invitrogen, cat. No. 25030-02), 1% penicillin-streptomycin (GIBCO, cat. No. 15140-114) at 37° C. in a 5% CO2 and 95% relative humidity atmosphere incubator.
The TSC1−/− cells were trypsinized and counted with a CASY TT cell counter (Schärfe System GmbH, Reutlingen Germany). The cells were diluted in fresh DMEM complete medium and 0.75×10^4 cells/150 μl/well seeded in 96-well TPP-tissue culture plates (TPP, cat. No. 92096). The plates were incubated at 37° C. and 5% CO2 under humidified condition for at least 20 h. Working solutions were prepared freshly as serial 8 step dilutions (vol/vol) in DMSO on the day of the experiment. The working solutions were further diluted 1/5000 in cell culture medium to get final compound concentrations of […]. The final DMSO concentration was kept constant at 0.02%. cell culture medium containing 0.02% DMSO was used as vehicle treatment control. Post incubation, the cells were treated with the serial compound dilution. 50 μl of the compound medium mixture was added to the wells containing cells and 150 μl DMEM medium and incubated for 60 minutes (37° C., 5% CO2). After 60 minutes of incubation, the medium mixture was quickly removed by aspiration. For cell lysis, a mixture of 10% CLB1 CeLyA lysis buffer (Zeptosens, cat. No. 9000), 90% CSBL1 CeLyA spotting buffer (Zeptosens, cat. No. 9020) was freshly prepared and supplemented with 1% Octyl β-D-glucopyranoside (SIGMA, cat. No. 08001-5G) and 1 mM Na-Orthovanadate (Sigma, cat No. S-6508). 50 μl of the described lysis buffer mix was added to each well, followed by 10 minutes of incubation on ice. After an additional freeze-thaw cycle, another 50 μl of the lysis buffer mix without Octyl β-D-glucopyranoside was added to the wells, and 90 μl of the cell lysate was transferred to a 96-well V-bottom plate (Fisher Scientific, cat. No. 6067Y), followed by a centrifugation step (5 min, 1500 rpm at 19° C. in an Eppendorf 5810R centrifuge) to remove the unlysed cell debris.
The spotting of the chips follows the previous described method.
The signal detection and the data analysis follows the previous described method using the pS6 ribosomal protein Ser235/236 (CST, cat. No. #2211) as a primary antibody.

Structure (SMILES) | IC50 [1] [µM] | IC50 ([2]; read-out: p-S6) [µM] | IC50 ([2]; read-out: p-S6 IC50) [µM]
COc1ncccc1-n1c(=O)n(C)c2cnc3ccc(-c4ccc(C(N)=O)cc4)cc3c21 [Example 1.6, 4-[1-(2-Methoxy-pyridin-3-yl)-3-methyl-2-oxo-2,3-dihydro-1H-imidazo[4,5-c]quinolin-8-yl]-benzamide] | 0.0293 | 0.0219 | 
CCOc1cc(-c2ccc3ncc4c(c3c2)n(-c2cccnc2C)c(=O)n4C)cnc1COC [Example 2.28, 8-(5-Ethoxy-6-methoxymethyl-pyridin-3-yl)-3-methyl-1-(2-methyl-pyridin-3-yl)-1,3-dihydro-imidazo[4,5-c]quinolin-2-one] | 0.218 |  | 0.014
Cc1ncccc1-n1c(=O)n(C)c2cnc3ccc(-c4cnc(N)c(C(F)(F)F)c4)cc3c21 [Example 2.11, 8-(6-Amino-5-trifluoromethyl-pyridin-3-yl)-3-methyl-1-(2-methyl-pyridin-3-yl)-1,3-dihydro-imidazo[4,5-c]quinolin-2-one] | 0.0209 | 0.00235 | 
Cc1ncccc1-n1c(=O)n(C)c2cnc3ccc(-c4cnc(N(C)C)nc4)cc3c21 [Example 2.15, 8-(2-Dimethylamino-pyrimidin-5-yl)-3-methyl-1-(2-methyl-pyridin-3-yl)-1,3-dihydro-imidazo[4,5-c]quinolin-2-one] | 0.102 | 0.0682 | 
CCNc1cc(-c2ccc3ncc4c(c3c2)n(-c2cccnc2C)c(=O)n4C)cnc1CO [Example 2.31, 8-(5-Ethylamino-6-hydroxymethyl-pyridin-3-yl)-3-methyl-1-(2-methyl-pyridin-3-yl)-1,3-dihydro-imidazo[4,5-c]quinolin-2-one] | 0.0314 |  | 0.021
CNc1ncc(-c2ccc3ncc4c(c3c2)n(-c2ncccc2C)c(=O)n4C)cn1 [Example 3.4, 3-Methyl-8-(2-methylamino-pyrimidin-5-yl)-1-(3-methyl-pyridin-2-yl)-1,3-dihydro-imidazo[4,5-c]quinolin-2-one] | 0.742 |  | 
COc1ccc(-c2ccc3ncc4c(c3c2)n(-c2cccnc2C)c(=O)n4C)cc1OC [Example 2.9, 8-(3,4-Dimethoxy-phenyl)-3-methyl-1-(2-methyl-pyridin-3-yl)-1,3-dihydro-imidazo[4,5-c]quinolin-2-one] | 0.0341 |  | 
CN(C)c1ccc(-c2ccc3ncc4c(c3c2)n(-c2cccnc2)c(=O)n4C)cn1 [Example 5.3, 8-(6-Dimethylamino-pyridin-3-yl)-3-methyl-1-pyridin-3-yl-1,3-dihydro-imidazo[4,5-c]quinolin-2-one] | 0.251 |  | 
COc1ccc(-c2ccc3ncc4c(c3c2)n(-c2ncccc2C)c(=O)n4C)cc1OC [Example 3.10, 8-(3,4-Dimethoxy-phenyl)-3-methyl-1-(3-methyl-pyridin-2-yl)-1,3-dihydro-imidazo[4,5-c]quinolin-2-one] | 0.479 |  | 
CNC(=O)c1ccc(-c2ccc3ncc4c(c3c2)n(-c2ncccc2C)c(=O)n4C)cc1 [Example 3.5, N-Methyl-4-[3-methyl-1-(3-methyl-pyridin-2-yl)-2-oxo-2,3-dihydro-1H-imidazo[4,5-c]quinolin-8-yl]-benzamide] | 0.458 |  | 
Cc1ncccc1-n1c(=O)n(C)c2cnc3ccc(-c4cncc(N)c4)cc3c21 [Example 2.25, 8-(5-Amino-pyridin-3-yl)-3-methyl-1-(2-methyl-pyridin-3-yl)-1,3-dihydro-imidazo[4,5-c]quinolin-2-one] | 0.11 |  | 
CCOc1ccc(-c2ccc3ncc4c(c3c2)n(-c2cnccc2C)c(=O)n4C)cn1 [Example 4.2, 8-(6-Ethoxy-pyridin-3-yl)-3-methyl-1-(4-methyl-pyridin-3-yl)-1,3-dihydro-imidazo[4,5-c]quinolin-2-one] |  | 0.46 | 
Cn1c(=O)n(-c2cccnc2)c2c3cc(-c4ccc(CO)nc4)ccc3ncc21 [Example 5.1, 8-(6-Hydroxymethyl-pyridin-3-yl)-3-methyl-1-pyridin-3-yl-1,3-dihydro-imidazo[4,5-c]quinolin-2-one] | 0.365 |  | 

The next lines start with results.

IC50 [1] [µM] | Structure (SMILES) | IC50 ([2]; read-out: p-S6) [µM] | IC50 ([2]; read-out: p-S6 IC50) [µM]
0.0207 | CNc1ncc(-c2ccc3ncc4c(c3c2)n(-c2ccc(N3CCC(O)C3)nc2C)c(=O)n4C)cn1 (stereo not shown) [Example 27.2, 1-[6-(3-Hydroxy-pyrrolidin-1-yl)-2-methyl-pyridin-3-yl]-3-methyl-8-(2-methylamino-pyrimidin-5-yl)-1,3-dihydro-imidazo[4,5-c]quinolin-2-one] |  | 0.002
0.0397 | CCNc1cc(-c2ccc3ncc4c(c3c2)n(-c2ccc(N3CC(O)C3)nc2C)c(=O)n4C)cnc1CO [Example 29.2, 8-(5-Ethylamino-6-hydroxymethyl-pyridin-3-yl)-1-[6-(3-hydroxy-azetidin-1-yl)-2-methyl-pyridin-3-yl]-3-methyl-1,3-dihydro-imidazo[4,5-c]quinolin-2-one] |  | 
0.155 | CCOc1cc(-c2ccc3ncc4c(c3c2)n(-c2ccc(N3CCC3)nc2C)c(=O)n4C)cnc1COC [Example 23.5, 1-(6-Azetidin-1-yl-2-methyl-pyridin-3-yl)-8-(5-ethoxy-6-methoxymethyl-pyridin-3-yl)-3-methyl-1,3-dihydro-imidazo[4,5-c]quinolin-2-one] |  | 
0.036 | CNc1ncc(-c2ccc3ncc4c(c3c2)n(-c2ccc(C(C)(C)O)nc2C)c(=O)n4C)cc1F [Example 31.1, 8-(5-Fluoro-6-methylamino-pyridin-3-yl)-1-[6-(1-hydroxy-1-methyl-ethyl)-2-methyl-pyridin-3-yl]-3-methyl-1,3-dihydro-imidazo[4,5-c]quinolin-2-one] |  | 
0.0177 | CNc1ncc(-c2ccc3ncc4c(c3c2)n(-c2ccc(N3CC[C@H](O)C3)nc2C)c(=O)n4C)cn1 [Example 32.1, 1-[6-((S)-3-Hydroxy-pyrrolidin-1-yl)-2-methyl-pyridin-3-yl]-3-methyl-8-(2-methylamino-pyrimidin-5-yl)-1,3-dihydro-imidazo[4,5-c]quinolin-2-one] |  | 
0.0238 | CNc1ccc(-c2ccc3ncc4c(c3c2)n(-c2ccc(N3CCC3)nc2C)c(=O)n4C)cn1 [Example 23.4, 1-(6-Azetidin-1-yl-2-methyl-pyridin-3-yl)-3-methyl-8-(6-methylamino-pyridin-3-yl)-1,3-dihydro-imidazo[4,5-c]quinolin-2-one] |  | 
0.144 | CCOc1ccc(-c2ccc3ncc4c(c3c2)n(-c2cccnc2F)c(=O)n4C)cn1 [Example 6.1, 8-(6-Ethoxy-pyridin-3-yl)-1-(2-fluoro-pyridin-3-yl)-3-methyl-1,3-dihydro-imidazo[4,5-c]quinolin-2-one] |  | 
0.0422 | Cc1nc(N2CCC2)ccc1-n1c(=O)n(C)c2cnc3ccc(-c4cncc(C(C)(C)O)c4)cc3c21 [Example 23.3, 1-(6-Azetidin-1-yl-2-methyl-pyridin-3-yl)-8-[5-(1-hydroxy-1-methyl-ethyl)-pyridin-3-yl]-3-methyl-1,3-dihydro-imidazo[4,5-c]quinolin-2-one] |  | 
0.0103 | Cc1nc(N2CCN(C)C(=O)C2)ccc1-n1c(=O)n(C)c2cnc3ccc(-c4cnc(N)c(C(F)(F)F)c4)cc3c21 [Example 21.1, 8-(6-Amino-5-trifluoromethyl-pyridin-3-yl)-3-methyl-1-[2-methyl-6-(4-methyl-3-oxo-piperazin-1-yl)-pyridin-3-yl]-1,3-dihydro-imidazo[4,5-c]quinolin-2-one] |  | 
0.123 | COCc1ncc(-c2ccc3ncc4c(c3c2)n(-c2ccc(N3CCC3)nc2C)c(=O)n4C)cc1OC(C)C [Example 23.2, 1-(6-Azetidin-1-yl-2-methyl-pyridin-3-yl)-8-(5-isopropoxy-6-methoxymethyl-pyridin-3-yl)-3-methyl-1,3-dihydro-imidazo[4,5-c]quinolin-2-one] |  | 
0.0801 | Cc1nc(N2CCC2)ccc1-n1c(=O)n(C)c2cnc3ccc(-c4cncc(OC(C)C)c4)cc3c21 [Example 23.9, 1-(6-Azetidin-1-yl-2-methyl-pyridin-3-yl)-8-(5-isopropoxy-pyridin-3-yl)-3-methyl-1,3-dihydro-imidazo[4,5-c]quinolin-2-one] |  | 
0.216 | COCc1ncc(-c2ccc3ncc4c(c3c2)n(-c2ccc(N3CCC3)nc2C)c(=O)n4C)cc1OC [Example 23.6, 1-(6-Azetidin-1-yl-2-methyl-pyridin-3-yl)-8-(5-methoxy-6-methoxymethyl-pyridin-3-yl)-3-methyl-1,3-dihydro-imidazo[4,5-c]quinolin-2-one] |  | 

From patent US20100311714A1, “1H-IMIDAZO[4,5-c]QUINOLINONE COMPOUNDS” (priority 2009, published 2010)
